Test results from patent US9707267B2, “Beta-turn peptidomimetic cyclic compounds for treating dry eye” (Mimetogen Pharmaceuticals, Inc., priority 2008, dated 2017).

Assays:
[1] = test system: rat conjunctival goblet cells; experiment: Glycoconjugate secretion from rat conjunctival goblet cells, ELLA (Example 1); type: cell-based; conditions: NGF, concentration not given, 2 hours; mean±sem
Method: Cells derived from the explants were grown in RPMI 1640 supplemented with 10% fetal bovine serum (FBS) and penicillin (100 U/mL)/streptomycin (100 μg/mL) at 37° C. in a humidified 5% CO2-atmosphere for seventy-two hours. Contaminating nongoblet cells were removed by scraping them from the plate. During this time, goblet cells migrated from the pieces and began to proliferate. After one week, the goblet cells were trypsinized and plated in twenty-four well culture plates with RPMI-1640 media supplemented with 10% FBS.
To measure glycoconjugate secretion, the conjunctival goblet cells were grown to confluence and were serum deprived for two hours before addition of nerve growth factor (NGF), carbachol (Cch), compound D3, compound 3Aa and compound 3Ak for two hours. Compounds D3, 3Aa and 3Ak were administered at concentrations of 30 μm (micromolar), 10 μM, 1 μM and 0.3 μM. The vehicle used to dissolve the compounds, dimethyl sulfoxide (DMSO) was also included. DMSO was used as the basal control for the 30 μM concentration of compound, which was at 0.1% (v/v). The cholinergic agonist carbachol (Cch), added at 100 μM (micromolar), was a positive control for glycoconjugate secretion. The amount of glycoconjugate secreted into the media was measured by enzyme-linked lectin assay (ELLA). The media were collected and analyzed for amount of the lectin-detectable glycoconjugates, including mucins. The amount of secretion was measured by using the lectin UEA-I which is specific for rat conjunctival goblet cell mucins. Biotinylated UEA-I lectin and alkaline phosphatase-labeled streptavidin were used as described in Rios, J. D., et al., “Role of Neurotrophins and Neurotrophin Receptors in Rat Conjunctival Goblet Cell Secretion and Proliferation, Ophthalmology & Visual Science, 48: 1543-1551 (2007), the entire content of which is incorporated herein by reference. The cells were removed and sonicated, and the cell homogenate was analyzed for the total amount of protein by using the Bradford protein assay. […] Glycoconjugate secretion was expressed as the increase (x-fold) over basal.
Data for CGC glycoconjugate secretion and proliferation were expressed as the increase (x-fold) above basal value, which was standardized to 1.0. For example, for the 0.3 μM (micromolar), 1 μM and 10 μM doses, the CGC glycoconjugate secretion and proliferation were expressed as test compound over untreated cells. For the 30 μM dose, the CGC glycoconjugate secretion and proliferation were expressed as test compound over DMSO untreated cells. Results are expressed as the mean±sem.

[2] = test system: cultured rat conjunctival goblet cells; experiment: Goblet cell glycoconjugate secretion, ELLA with UEA-1 (Example 2); type: cell-based; conditions: 2 hours; for Glycoconjugate Secretion, Mean ± sem: mean of rats; for Glycoconjugate Secretion, Mean ± SD: mean of rats/plates
Method: The culturing of conjunctival goblet cells from explant cultures was as previously described in Shatos, M. et al., “Isolation, Characterization, and Propagation of Rat Conjunctival Goblet Cells In Vitro,” IOVS 42:1455-1464 (2001), the entire content of which is incorporated herein by reference. The tissue was finely minced and individual pieces were anchored onto scored 6-well cultures dishes in 0.5 mL of complete RPMI-1640 (supplemented with 10% FBS, 2 mM glutamine and 100 μg/mL penicillin-streptomycin) and incubated at 37° C. in a humidified 5% CO2-atmosphere. Explant cultures were refed every 2 days. Within a few days, goblet cells migrated from the pieces and began to proliferate. After approximately one week, the tissue plugs were removed and the goblet cells were allowed to grow to confluence. Cells were passaged once by trypsinization of adherent cells with 0.05% trypsin-0.53 mM EDTA (pH 7.4), and plated in 8-well Laboratory Tek chamber slides (histochemistry) or in 96 well (proliferation), 24 well (secretion), or 6 well (western blots) culture plates with complete RPMI-1640 media.
To measure cell secretion, goblet cells were grown to confluence and then serum depleted for 2 hours prior to stimulation. Cells were incubated with compound D3 at 2, 10, and 50 μM, NGF at 0.1, 1 and 10 nM, and PMA at 0.1, 1, and 10 nM in serum-free RPMI for 2 hours. Goblet cell secretion was measured using an enzyme-linked lectin assay (ELLA). Briefly, an aliquot of the cell culture supernatant was transferred to a 96-well polystyrene microtiter plate in triplicate (Corning Life Sciences #2592, Fisher Scientific, Nepean, Ont). A dilution series of bovine submaxillary mucin (BSM) (Sigma, St. Louis, Mo.) was included on each plate as the standard (standard curve data and data showing that detection of BSM is linear between 0.003 and 0.1 μg not shown). The plates were coated by evaporation at 37° C. overnight. After, the plates were washed three times with wash buffer [PBS containing 0.3% BSA, 0.05% Tween-20] then blocked for nonspecific binding with PBS containing 3% BSA and 0.05% Tween-20 at 37° C. for 1 hour. The wells were rinsed three times in wash buffer, and then incubated in 2 μg/mL biotinylated UEA-1 diluted in wash buffer (Vector Labs, Burlingame, Calif.) at 37° C. for 1 hour. The wells were rinsed three times in wash buffer, and then incubated in 1 μg/mL HRP-conjugated neutravidin diluted in wash buffer (Pierce, Rockford, Ill.) at 37° C. for 1 hour. After the wells were rinsed three times in wash buffer, the color development was performed with TMB (Promega, Madison, Wis.) and stopped with 0.5N Sulfuric acid. The absorbance was read at 450 nm on a Benchmark Plus (Biorad). The goblet cells remaining in the culture wells were either scraped in RIPA buffer [1% TritonX-100, 20 mM Tris-HCl pH 7.5, 150 mM NaCl, 1.5 mM MgCl2, 1% Na deoxycholate, 1 mM EGTA, 1 mM EDTA, 0.1% SDS, 10% glycerol, 1 mM Na vanadate, 10 mM Na fluoride, 10 mM Na pyrophosphate, complete mini EDTA-free protease inhibitors (Roche Applied Science, Indianapolis, Ind.)] or 1M Tris-buffer (pH 7.5), collected and sonicated. The amount of protein in the cell homogenate was analyzed using the Bradford protein assay kit using a dilution series of bovine serum albumin (BSA) as the standard (BioRad, Montreal, PQ). Glycoconjugate secretion was normalized to total protein in the homogenate. Data was then expressed as fold increase above basal. […]

Substance: NGF: nerve growth factor (recombinant human), positive control
- CGC glycoconjugate secretion [1]: 1.3±0.1 fold above basal
- Glycoconjugate Secretion ([2]; 0.1 nM, Rat 1): 1.49 Fold increase above basal
- Glycoconjugate Secretion ([2]; 0.1 nM, Rat 1 Plate 1): 7.6 μg glycoconjugate/mg total protein
- Glycoconjugate Secretion ([2]; 0.1 nM, Rat 2): 1.20 Fold increase above basal
- Glycoconjugate Secretion ([2]; 0.1 nM, Rat 2 Plate 1): 2.4 μg glycoconjugate/mg total protein
- Glycoconjugate Secretion ([2]; 0.1 nM, Rat 3): 0.94 Fold increase above basal
- Glycoconjugate Secretion ([2]; 0.1 nM, Rat 3 Plate 1): 4.6 μg glycoconjugate/mg total protein
- Glycoconjugate Secretion ([2]; 0.1 nM, Rat 4): 1.24 Fold increase above basal
- Glycoconjugate Secretion ([2]; 0.1 nM, Rat 4 Plate 1): 10.6 μg glycoconjugate/mg total protein
- Glycoconjugate Secretion, Mean ± sem ([2]; 0.1 nM): 1.22 ± 0.11 Fold increase above basal
- Glycoconjugate Secretion, Mean ± SD ([2]; 0.1 nM): 6.3 ± 3.6 μg glycoconjugate/mg total protein
- Glycoconjugate Secretion ([2]; 1 nM, Rat 1): 2.67 Fold increase above basal
- Glycoconjugate Secretion ([2]; 1 nM, Rat 1 Plate 1): 13.6 μg glycoconjugate/mg total protein
- Glycoconjugate Secretion ([2]; 1 nM, Rat 2): 0.85 Fold increase above basal
- Glycoconjugate Secretion ([2]; 1 nM, Rat 2 Plate 1): 1.7 μg glycoconjugate/mg total protein
- Glycoconjugate Secretion ([2]; 1 nM, Rat 3): 1.00 Fold increase above basal
- Glycoconjugate Secretion ([2]; 1 nM, Rat 3 Plate 1): 4.9 μg glycoconjugate/mg total protein
- Glycoconjugate Secretion ([2]; 1 nM, Rat 4): 1.26 Fold increase above basal
- Glycoconjugate Secretion ([2]; 1 nM, Rat 4 Plate 1): 10.8 μg glycoconjugate/mg total protein
- Glycoconjugate Secretion, Mean ± sem ([2]; 1 nM): 1.44 ± 0.42 Fold increase above basal
- Glycoconjugate Secretion, Mean ± SD ([2]; 1 nM): 7.8 ± 5.4 μg glycoconjugate/mg total protein
- Glycoconjugate Secretion ([2]; 10 nM, Rat 1): 1.58 Fold increase above basal
- Glycoconjugate Secretion ([2]; 10 nM, Rat 1 Plate 1): 10.4 μg glycoconjugate/mg total protein
- Glycoconjugate Secretion ([2]; 10 nM, Rat 1 Plate 2): 4.4 μg glycoconjugate/mg total protein
- Glycoconjugate Secretion ([2]; 10 nM, Rat 2): 1.49 Fold increase above basal
- Glycoconjugate Secretion ([2]; 10 nM, Rat 2 Plate 1): 3.6 μg glycoconjugate/mg total protein
- Glycoconjugate Secretion ([2]; 10 nM, Rat 2 Plate 2): 2.7 μg glycoconjugate/mg total protein
- Glycoconjugate Secretion ([2]; 10 nM, Rat 3): 1.98 Fold increase above basal
- Glycoconjugate Secretion ([2]; 10 nM, Rat 3 Plate 1): 9.7 μg glycoconjugate/mg total protein
- Glycoconjugate Secretion ([2]; 10 nM, Rat 4): 1.19 Fold increase above basal
- Glycoconjugate Secretion ([2]; 10 nM, Rat 4 Plate 1): 10.2 μg glycoconjugate/mg total protein
- Glycoconjugate Secretion, Mean ± sem ([2]; 10 nM): 1.55±0.18 Fold increase above basal
- Glycoconjugate Secretion, Mean ± SD ([2]; 10 nM): 6.8 ± 3.6 μg glycoconjugate/mg total protein
